Measured values published in patent publication US8828401B2, “Cytotoxic peptides and antibody drug conjugates thereof” (Pfizer Inc., priority 2011, dated 2014).
Non-standard residues stand in square brackets, D forms with d. Residues, ends and D or L forms follow the SMILES beside them. *: point of attachment. Dolaproine = CO[C@@H]([C@@H]1CCCN1)[C@@H](C)C(=O)O; Dil = CC[C@H](C)[C@H](NC)[C@@H](CC(=O)O)OC; Doe = c1ccc(C[C@H](N*)c2nccs2)cc1; Ac4c(3-oxa) = NC1(C(=O)O)COC1; NHPhenethyl = c1ccc(CCN*)cc1; Ac5c = NC1(C(=O)O)CCCC1; Aib = CC(C)(N)C(=O)O

What was measured:
Assay in all cases: In vitro cell assay, MTS cell viability 96 hours after treatment
Assay type in all cases: cell-based
[1] = system: MDA-MB-361-DYT2 (breast cancer); details: read-out: MDA-MB-361-DYT2 GMEAN IC50, MDA-MB-361-DYT2 cells; geometric mean; cytotoxic peptides
In short: (§1)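 Relative viability, calculated as percent of untreated control, came from an MTS colorimetric assay after 96 hours of exposure to serially diluted conjugates or unconjugated drugs.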

BT474 (breast cancer) = details: Homo sapiens, BT-474, BT474 cells; geometric mean; cytotoxic peptides; read-out: BT474 GMEAN IC50
In short: as §1

N87 (gastric cancer) = details: read-out: N87 GMEAN IC50, N87 cells; geometric mean; cytotoxic peptides
In short: as §1

SMILES: CC[C@H](C)[C@@H]([C@@H](CC(=O)N1CCC[C@H]1[C@H](OC)[C@@H](C)C(=O)N[C@@H](Cc1ccccc1)c1nccs1)OC)N(C)C(=O)[C@@H](NC(=O)C1(N)CCCC1)C(C)C [#47, N^2-[(1-aminocyclopentyl)carbonyl]-N-[(3R,4S,5S)-3-methoxy-1-{(2S)-2-[(1R,2R)-1-methoxy-2-methyl-3-oxo-3-{[(1S)-2-phenyl-1-(1,3-thiazol-2-yl)ethyl]amino}propyl]pyrrolidin-1-yl}-5-methyl-1-oxoheptan-4-yl]-N-methyl-L-valinamide] (H-[Ac5c]V[Dil][Dolaproine]-Doe)
- IC50 [1]: 317 pM
- IC50 (BT474 (breast cancer)): < 244 pM
- IC50 (N87 (gastric cancer)): < 256 pM

SMILES: CC[C@H](C)[C@@H]([C@@H](CC(=O)N1CCC[C@H]1[C@H](OC)[C@@H](C)C(=O)NCCc1ccccc1)OC)N(C)C(=O)[C@@H](NC(=O)C(C)(C)N)C(C)C [#56, 2-methylalanyl-N-{(3R,4S,5S)-3-methoxy-1-[(2S)-2-{(1R,2R)-1-methoxy-2-methyl-3-oxo-3-[(2-phenylethyl)amino]propyl}pyrrolidin-1-yl]-5-methyl-1-oxoheptan-4-yl}-N-methyl-L-valinamide] (H-[Aib]V[Dil][Dolaproine]-NHPhenethyl)
- IC50 [1]: 766 pM
- IC50 (BT474 (breast cancer)): 316 pM
- IC50 (N87 (gastric cancer)): 1260 pM

SMILES: CC[C@H](C)[C@@H]([C@@H](CC(=O)N1CCC[C@H]1[C@H](OC)[C@@H](C)C(=O)NCCc1ccccc1)OC)N(C)C(=O)[C@@H](NC(=O)C1(N)COC1)C(C)C [#75, N^2-[(3-aminooxetan-3-yl)carbonyl]-N-{(3R,4S,5S)-3-methoxy-1-[(2S)-2-{(1R,2R)-1-methoxy-2-methyl-3-oxo-3-[(2-phenylethyl)amino]propyl}pyrrolidin-1-yl]-5-methyl-1-oxoheptan-4-yl}-N-methyl-L-valinamide] (H-[Ac4c(3-oxa)]V[Dil][Dolaproine]-NHPhenethyl)
- IC50 [1]: > 100000 pM
- IC50 (BT474 (breast cancer)): > 100000 pM
- IC50 (N87 (gastric cancer)): > 100000 pM

SMILES: CC[C@H](C)[C@@H]([C@@H](CC(=O)N1CCC[C@H]1[C@H](OC)[C@@H](C)C(=S)N[C@@H](Cc1ccccc1)C(=O)OC)OC)N(C)C(=O)[C@@H](NC(=O)C(C)(C)NC)C(C)C [#79, N,2-dimethylalanyl-N-[(3R,4S,5S)-3-methoxy-1-{(2S)-2-[(1R,2R)-1-methoxy-3-{[(2S)-1-methoxy-1-oxo-3-phenylpropan-2-yl]amino}-2-methyl-3-thioxopropyl]pyrrolidin-1-yl}-5-methyl-1-oxoheptan-4-yl]-N-methyl-L-valinamide]
- IC50 [1]: 129 pM
- IC50 (BT474 (breast cancer)): 79 pM
- IC50 (N87 (gastric cancer)): 137 pM

SMILES: CC[C@H](C)[C@@H]([C@@H](CC(=O)N1CCC[C@H]1[C@H](OC)[C@@H](C)C(=S)N[C@@H](Cc1ccccc1)C(=O)O)OC)N(C)C(=O)[C@@H](NC(=O)C(C)(C)NC)C(C)C [#80, N,2-dimethylalanyl-N-[(3R,4S,5S)-1-{(2S)-2-[(1R,2R)-3-{[(1S)-1-carboxy-2-phenylethyl]amino}-1-methoxy-2-methyl-3-thioxopropyl]pyrrolidin-1-yl}-3-methoxy-5-methyl-1-oxoheptan-4-yl]-N-methyl-L-valinamide]
- IC50 [1]: 32800 pM
- IC50 (BT474 (breast cancer)): 20300 pM
- IC50 (N87 (gastric cancer)): 28200 pM

SMILES: CC[C@H](C)[C@@H]([C@@H](CC(=O)N1CCC[C@H]1[C@H](OC)[C@@H](C)C(=S)N[C@@H](Cc1ccccc1)c1nccs1)OC)N(C)C(=O)[C@@H](NC(=O)C(C)(C)NC)C(C)C [#84, N,2-dimethylalanyl-N-[(3R,4S,5S)-3-methoxy-1-{(2S)-2-[(1R,2R)-1-methoxy-2-methyl-3-{[(1S)-2-phenyl-1-(1,3-thiazol-2-yl)ethyl]amino}-3-thioxopropyl]pyrrolidin-1-yl}-5-methyl-1-oxoheptan-4-yl]-N-methyl-L-valinamide]
- IC50 [1]: 686 pM
- IC50 (BT474 (breast cancer)): 246 pM
- IC50 (N87 (gastric cancer)): 426 pM
